# Marks after values point to notes of the source that are not given here.
# Legend:
# [1] = Peak absorption wavelength, peak emission wavelength and fluorescent quantum yield; type: physicochemical
# Source text: Table 2 provides a peak absorption wavelength (λabs maximum), peak emission wavelength (λem maximum), a fluorescent quantum yield (ΦF), and a synthesis yield for the various compounds. The synthesis yield is based on the synthetic pathway illustrated in FIG. 1.
# [2] = Emission spectrum on exposure to varying amounts of FeCl3; conditions: for total red-shift in peak emission wavelength: at saturation with Fe^3+
# Method: Two substituted chromones (Compound 11 and Compound 20) were dissolved in methanol and exposed to varying amounts of FeCl3 (i.e., Fe^3+). FIG. 4 illustrates the shift in emission spectrum of Compound 11 with increasing amounts of Fe^3+ ions. With about 10 equivalents of Fe^3+ ions, the shift in emission spectrum is saturated, with a total of about a 30 nm red-shift in peak emission wavelength. FIG. 5 illustrates the shift in emission spectrum of Compound 20 with increasing amounts of Fe^3+ ions. With about 10 equivalents of Fe^3+ ions, the shift in emission spectrum is saturated, with a total of about a 50 nm red-shift in peak emission wavelength.
# Compound 11 was dissolved in various solvents and then exposed to varying amounts of FeCl3 (i.e., Fe^3+).
# (§1) Compound 11 was dissolved in methanol and then exposed to varying amounts of FeCl3 (i.e., Fe^3+) or (NH4)2Fe(SO4)2.6H2O (i.e., Fe^2+). […] Therefore, Compound 11 may be used to detect Fe^3+ while in the presence of Fe^2+.
# [3] = Emission spectrum on exposure to varying amounts of (NH4)2Fe(SO4)2.6H2O; conditions: methanol; FIG. 6
# Method: as §1
# [4] = Emission spectrum on exposure to varying amounts of lead nitrate
# Method: Compound 20 was dissolved in methanol and then exposed to varying amounts of […] (i.e., Pb^2+). […] Therefore, a kit, method, system, or the like may utilize a specific solvent system for detection of lead or other Ions. Alternatively, and especially where the metal ion concentration is unknown, a kit, method, system, or the like may utilize a series of solvent systems in parallel to determine a concentration of metal ions.
# A 5 μM sample of Compound 25 in 3:1 tetrahydrofuran:methanol or 2:1 tetrahydrofuran:methanol was prepared and exposed to varying amounts of Pb(NO3)2 (i.e., Pb^2+) dissolved in deionized water.
# [5] = Visual detection limit, blue to green fluorescence change; conditions: 5 μM compound in 3:1 tetrahydrofuran:methanol; Pb(NO3)2 in deionized water
# Method: The detection limit Pb(NO3)2 (i.e., Pb^2+) for Compound 25 in 3:1 tetrahydrofuran:methanol was tested by exposing samples of 5 μM Compound 25 to ever decreasing concentrations of Pb(NO3)2 dissolved in deionized water.
# A 40 mM solution of Pb(NO3)2 (i.e., Pb^2+) was prepared in tap water and then diluted with 3:1 tetrahydrofuran:methanol to a lead concentration of 133 μM. The resultant sample was added to solutions of 5 μM sample of Compound 25 in 3:1 tetrahydrofuran:methanol. […] This example illustrates that the lead detection can be performed using tap water, which includes a variety of other ions.
# [6] = Visual ion selectivity test, excited at 365 nm; conditions: 3:1 tetrahydrofuran:methanol
# Method: Compound 25 was dissolved in 3:1 tetrahydrofuran:methanol and then exposed to varying amounts of Zn/SO4 (i.e., Zn^2+), (NH4)2Fe(SO4)2.6H2O (i.e., Fe^2+), Fe2O3 (i.e., Fe^3+), CuSO4 (i.e., Cu^2+), or Pb(NO3)2 (i.e., Pb^2+) each in deionized water. Upon visual inspection when excited at 365 nm, the sample exposed to Pb^2+ turned green while all other samples remained blue.
# [7] = Extraction of lead from water with octanol and triethylamine; conditions: 3 mM Pb(NO3)2, 1 equivalent triethylamine
# Method: A 3 mM Pb(NO3)2 sample was prepared in deionized water and Compound 25 was added to give a green fluorescence. The lead was then extracted from the water using either 1-octanol or 2-octanol each with 1 equivalent (relative to Compound 25) of triethylamine, which turned the octanol portion green. After washing thrice with 1-octanol, 99% of the Pb^2+ had been extracted from the water. After washing twice with 2-octanol, 83% of the Pb^2+ had been extracted from the water.
# [8] = Detection of lead in methanol extract of soil
# Method: A lead-free soil sample was collected, placed into a Buchner funnel, and soaked with 1 mL of 0.15 M Pb(NO3)2 in water to introduce lead to the soil. As a control sample, the same was performed with the lead-free soil without exposure to Pb^2+. After soaking, the soil samples were washed with 50 mL of methanol. A sample from each filtrate was diluted in 3:1 tetrahydrofuran:methanol and exposed to Compound 25. […] This example illustrates that the substituted chromones described herein may be useful in detecting ions from soil extracts.
# [9] = 5 μM compound, 3:1 or 2:1 tetrahydrofuran:methanol, excitation 370 nm
structure (smiles),measurement,setting,value
"COC(=O)C(C)(C)C1Oc2ccc(OC)cc2C(=O)/C1=C\O (stereo not shown) [Compound 11, (Z)-methyl-2-(3-(hydroxymethylene)-6-methoxy-4-oxochroman-2-yl)-2-methylpropanoate]",ΦF,[1]; solvent dichloromethane,20* %
same,λabs maximum,[1]; solvent dichloromethane,383 nm
same,λem maximum,[1]; solvent dichloromethane,482 nm
same,red-shift in peak emission wavelength,[2]; 1:1 methanol:water as solvent,still exhibits a red-shift in peak emission wavelength
same,amount of Fe^3+ ions at which the shift in emission spectrum is saturated,[2]; methanol,about 10 equivalents
same,intensity change of peak emission with increasing metal ion concentration,"[2]; methanol, FIG. 4",intensity decrease
same,shift of peak emission wavelength,"[2]; methanol, FIG. 4",significant red-shift
same,total red-shift in peak emission wavelength,[2]; methanol,~30 nm
same,red-shift in peak emission wavelength,"[2]; polar aprotic solvents: tetrahydrofuran, acetonitrile, acetone",did not exhibit an appreciable red-shift
same,red-shift in peak emission wavelength,"[2]; polar protic solvents: water, methanol, mixtures thereof",exhibited an appreciable red-shift
same,intensity change of peak emission with increasing metal ion concentration,[3],intensity decrease
same,shift of peak emission wavelength,[3],does not exhibit appreciable shift
"CCc1ccc2c(c1)C(=O)/C(=C\NS(=O)(=O)c1ccc(C)cc1)C(C(C)(C)C(=O)OC)O2 (stereo not shown) [Compound 20, (Z)-methyl 2-(6-ethyl-3-((4-methylphenylsulfonamido)methy-lene)-4-oxochroman-2-yl)-2-methylpropanoate]",ΦF,[1]; solvent acetonitrile,16** %
same,λabs maximum,[1]; solvent acetonitrile,369 nm
same,λem maximum,[1]; solvent acetonitrile,496 nm
same,ΦF,[1]; solvent cyclohexane,30*** %
same,λabs maximum,[1]; solvent cyclohexane,364 nm
same,λem maximum,[1]; solvent cyclohexane,481 nm
same,ΦF,[1]; solvent dichloromethane,73* %
same,λabs maximum,[1]; solvent dichloromethane,370 nm
same,λem maximum,[1]; solvent dichloromethane,490 nm
same,red-shift in peak emission wavelength,[2]; 1:1 methanol:water as solvent,does not
same,amount of Fe^3+ ions at which the shift in emission spectrum is saturated,[2]; methanol,about 10 equivalents
same,total red-shift in peak emission wavelength,[2]; methanol,~50 nm
same,amount of Pb^2+ at max shift in peak emission wavelength,[4]; 1:1 tetrahydrofuran:methanol,about 5 equivalents
same,amount of Pb^2+ at max shift in peak emission wavelength,[4]; 3:1 tetrahydrofuran:methanol,about 3 equivalents
same,shift in peak emission wavelength,[4]; THF alone,no appreciable shift in peak emission wavelength
same,amount of Pb^2+ at which the shift in peak emission wavelength maxes out,[4]; methanol,10 equivalents
same,shift in peak emission wavelength at 1 equivalent Pb^2+,[4]; methanol,no appreciable shift
same,shift in peak emission wavelength at 1 equivalent Pb^2+,[4]; mixed tetrahydrofuran/methanol,appreciable shift
"COC(=O)C(C)(C)C1Oc2ccc(OC)cc2C(=O)/C1=C\NS(=O)(=O)c1ccc(OC)cc1 (stereo not shown) [Compound 25, (Z)methyl-2-(6-methoxy-3-(((4-methoxyphenyl)sulfonamido)methy-lene)-4-oxochroman-2-yl)-2-methylpropanoate]",ΦF,[1]; solvent dichloromethane,69* %
same,λabs maximum,[1]; solvent dichloromethane,392 nm
same,λem maximum,[1]; solvent dichloromethane,527 nm
same,change of peak emission in the presence of Pb^2+,[4]; [9],red-shift and intensity decrease
same,visual change of fluorescence colour,[4]; [9],blue to green
same,speed of the color change,[5],almost instantaneous
same,fluorescence colour of sample exposed to Cu^2+,[6],remained blue
same,fluorescence colour of sample exposed to Fe^2+,[6],remained blue
same,fluorescence colour of sample exposed to Fe^3+,[6],remained blue
same,fluorescence colour of sample exposed to Zn^2+,[6],remained blue
same,selectivity among heavy metal ions,"[6]; Zn^2+, Fe^2+, Fe^3+, Cu^2+, Pb^2+ compared",selectivity for Pb^2+ ions over other heavy metal ions
same,fluorescence colour of sample exposed to Pb^2+,[6]; excited at 365 nm,turned green
same,Pb^2+ extracted from the water,[7]; washing thrice with 1-octanol,99%
same,Pb^2+ extracted from the water,[7]; washing twice with 2-octanol,83%
same,color change with soil extract,"[8]; extract from soil exposed to Pb^2+, diluted in 3:1 tetrahydrofuran:methanol",color change from blue to green
same,color change with soil extract,"[8]; extract from soil not exposed to Pb^2+, same dilution",no color change

# — patent US10444149B2, “Fluorescent compounds as sensing agents” (OHIO NORTHERN UNIVERSITY, priority 2016, dated 2019)
